Results as given in article PMC11799252, “The differentiation state of small intestinal organoid models influences prediction of drug-induced toxicity” (Frontiers in Cell and Developmental Biology, 2025).
Read-outs that look alike come from different tables or passages of the source.

Tests used:
[1] = system: differentiated duodenum organoids; test: Cell viability (Cell Titer Glo 3D, ATP) in differentiated organoid model; conditions: for IC50: Homo sapiens, read-out: IC50 (μM) Diff.
Experimental: (§1) Organoids were grown for 7–10 days then dissociated using TrypLE™ Express Enzyme, as described above. Single cells were resuspended in BME at a density of 5–6 × 10^5 cells/mL on ice and plated as 5 μL/well domes in clear-bottom 96-well plates (Corning). The domes were cured for 10–15 min at 37°C and overlaid with 100 μL of growth media replaced every 2–3 days.
(§2) Compounds were administered after 5–6 days in growth medium for proliferative organoids or after an additional 4 days in differentiation medium for differentiated organoids. Organoid media was replaced with 90 μL fresh media immediately prior to dosing. Compounds were diluted in growth or differentiation medium and administered as a 5-fold dilution series at 5-8 concentrations with corresponding 0.5% DMSO vehicle control (1% DMSO for aspirin), at 10 μL/well in triplicate. […] After 3 days of treatment, cultures were imaged by brightfield microscopy (THUNDER DMi8 inverted light microscope with a 2.5× objective and a DFC9000 GTC camera (Leica)). Wells were precluded from analysis on visual quality control (i.e., organoid loss due to BME degradation/dislodging or insufficient seeding density) congruent with cytotoxicity analysis. An equal volume of Cell Titer Glo 3D Reagent (Promega) was added to each well as described by the manufacturer’s instructions. Luminescence was measured on EnSight and EnVision (Perkin Elmer) plate readers and normalized to on-plate vehicle controls (0.5%–1% DMSO) in corresponding growth or differentiation medium. Experiments were conducted in technical triplicates and repeated in organoids from 3 different donors (donor demographics noted in Supplementary Table S1). Normalized viability was averaged at each concentration for each donor, and mean of donors was fit to a 4-Parameter Logistic (4PL) curve using Prism (GraphPad) to estimate the half-maximal inhibitory concentration (IC50) for each compound.
(§3) To compare toxicity responses of proliferative and differentiated organoids, proliferative organoids were grown 5–6 days in OGM prior to dosing, while differentiated organoids were transitioned to ODM for an additional 4 days prior to dosing (Figure 2A). Both proliferative and differentiated organoids were incubated with compounds or a 0.5%–1% DMSO vehicle control (as indicated) for 3 days prior to measuring ATP levels as a readout for cell viability. […] Compound-treated organoid ATP readouts were normalized to vehicle controls and a half-maximal inhibitory concentration (IC50) was calculated from dose-response curves of organoid viability for five compounds across 3 donor organoid lines.

[2] = system: proliferative duodenum organoids; test: Cell viability (Cell Titer Glo 3D, ATP) in proliferative organoid model; conditions: for IC50: Homo sapiens, 72 h, read-out: IC50 (μM) Prolif.
Experimental: as §1, §2, §3

[3] = clinical, cited from earlier work
[4] = clinical plasma, cited from earlier work
[5] = Cell viability (Cell Titer Glo 3D, ATP) in differentiated organoid model; conditions: human, differentiated duodenum organoids
Experimental: as §1, §2, §3

[6] = patients, ref Peters et al., 2019
[7] = ref Peters et al., 2019, 2020, Belair et al.

| Compound | IC50 [1] | fold increase in IC50, differentiated vs proliferative organoids ([1]; IC50 differentiated / IC50 proliferative) | IC50 [2] | Incidence of Diarrhea (%) [3, 6] | Cmax [4, 7] | decreases in viability ([1]; below 100 µM, differentiated organoids, 3 days) | IC50/Cmax Diff. ([1]; human, 3 days) | cytotoxicity at 3 days, 200 µM [5] | decline in viability ([2]; 200 µM, proliferative organoids, 3 days) | decreases in viability ([2]; below 100 µM, proliferative organoids, 3 days) | IC50/Cmax Prolif. ([2]; human, 3 days) | Incidence of Diarrhea (%) ([3]; oral dosing, ref Rampal et al., 2001) | Incidence of Diarrhea (%) ([3]; oral dosing, ref Rampal et al., 2001, listed as Aspirin) | Cmax ([4]; high-dose oral administration, ref Nagelschmitz et al. (2014)) |
| --- | --- | --- | --- | --- | --- | --- | --- | --- | --- | --- | --- | --- | --- | --- |
| CN(C)C/C=C/C(=O)Nc1cc2c(Nc3ccc(F)c(Cl)c3)ncnc2cc1O[C@H]1CCOC1 [afatinib] | 4.16 µM | over 100 fold | 0.036 µM | 96% | 0.078 µM |  |  |  |  |  |  |  |  |  |
| CNC(=O)c1cc(Oc2ccc(NC(=O)Nc3ccc(Cl)c(C(F)(F)F)c3)cc2)ccn1 [sorafenib] | 8.42 µM |  | 10 µM | 43% | 6.2 µM |  |  |  |  |  |  |  |  |  |
| COc1cc2c(c(OC)c1OC)-c1ccc(OC)c(=O)cc1[C@@H](NC(C)=O)CC2 [colchicine] |  |  |  |  | 0.017 µM |  |  |  |  |  |  |  |  |  |
| CC(=O)Oc1ccccc1C(=O)O [aspirin, Acetylsalicylic acid] | 626 µM |  | 1770 µM |  |  | minimal | 23.3 | ~25% | no decline | minimal | 65.9 | less than 2% | 1.8% | 26.9 µM |
